In patent US20180030546A1, “Identification of a 5-Gene Expression Signature Predicting Clinical Outcome of Patients with Brain Tumors” (THE TRUSTEES OF COLUMBIA UNIVERSITY IN THE CITY OF NEW YORK, priority 2012, published 2018):

Experiments:
[1] = tested on: SSEA1 and ITGα6 positive GICs; test: Proximity of GICs to CD31 positive endothelial cells in the perivascular niche; type: in vivo, mouse; conditions: Id-cTKO tumors versus controls
Method: (§1) Tissue preparation and immunohistochemistry on brain tumors and immunofluorescence staining were performed as previously described (26, 50, 51). In histograms, values represent the mean values; error bars are standard deviations (SD) or standard error of the mean (SEM) as indicated in Figure legends. Statistical significance was determined by t test (two-tailed) using GraphPad Prism 4.0 software (GraphPad Inc., San Diego, Calif.). Quantification of the IL-6 intensity staining in was performed using NIH Image J software (http://rsb.info.nih.gov/ij/). The histogram of the intensity of fluorescence of each point of a representative field for each condition was generated. The fluorescence intensity of three fields from three independent tumors was scored, and standardized to the number of cells in the field.

[2] = tested on: Ras-V12-IRES-Cre-ER-shp53 HGG; test: Survival of glioma-bearing Id-cTKO mice treated with tamoxifen or oil; type: in vivo, mouse
[3] = tested on: Ras-V12-IRES-Cre-ER-shp53 HGG; test: Histology and immunostaining of Ras-V12-IRES-Cre-ER-shp53 tumors after tamoxifen or oil; type: in vivo, mouse
Method: as §1
Intracranial injection of Ras-V12-IRES-Cre-ER-shp53 lentivirus was performed in 4-week-old Id-cTKO mice in accordance with guidelines of the […] Animal Care and Use Committee. Briefly, 1.3 μl of purified lentiviral particles in PBS (1×10^9/ml) were injected 1.45 mm lateral and 1.6 mm anterior to the bregma, and 2.3 mm below the skull using a stereotaxic frame (Kopf Instruments). Orthotopic implantation of mouse glioma cells was performed as described using 50,000 cells in 2 μof phosphate buffer (26). […] Mice were monitored daily and sacrificed when neurological symptoms appeared. Tumor volume was obtained using three-dimensional measurements in the formula for an ellipsoid: [Length×Width×Height×(π/6)]. The dimensions were derived from a complete, H&E stained, histological sectioning of the mouse brain. The length was determined by counting the number of sections containing tumor cells and multiplying it by the section thickness. […] Kaplan-Meier survival curve was generated using the DNA Statview software package (AbacusConcepts, Berkeley, Calif.).

[4] = tested on: GICs from HrasV12-Cre-ER-shp53 glioma; test: Glioma sphere formation and limiting dilution assay; type: cell-based, mouse
Method: For human and mouse glioma sphere formation, cells were infected with lentiviral particles. Three days later single cells were plated at density of ≦3 cells/well in triplicate in low attachment 96 well plates. The number and the size of spheres were scored after 10-14 days. Limiting dilution assay was performed as described previously (24). Spheres were dissociated into single cells and plated in 96-well plates in 0.2 ml of medium containing growth factors. Cultures were left undisturbed for 10 days, and then the percentage of wells not containing spheres for each cell dilution was calculated and plotted against the number of cells per well. Linear regression lines were plotted, and the number of cells required to generate at least one sphere in every well (=the stem cell frequency) was calculated. The experiment was repeated twice.

Structure (SMILES): CC/C(=C(\c1ccccc1)c1ccc(OCCN(C)C)cc1)c1ccccc1 [tamoxifen]
- reduction of the fraction of GICs residing within 10 μm from CD31-positive cells [1]: five-fold
- mice alive after a median of twenty weeks ([2]; Id-cTKO mice, HrasV12-Cre-ER-shp53 lentivirus, tamoxifen by feeding needle, 4-day cycles from day 12, seven of eleven mice): 64%
- tumor growth ([2]; wild type animals infected with HrasV12-Cre-ER-shp53 lentivirus (without ID ablation), data not shown): did not affect tumor growth
- tumors with dramatic reduction of tumor volume compared with carrier-treated tumors ([3]; Id-cTKO mice sacrificed six weeks after tumor initiation): 80%
- reduction in the proliferation rate measured by Ki67 immunoreactivity ([3]; Id-cTKO mice, six weeks after tumor initiation, versus control tumors): four-fold
- ID1 and ID2 expression in advanced tumors by immunofluorescence ([3]; seven days after a single four-day cycle of tamoxifen treatment): loss of ID1 and ID2 expression
- tumor-sphere forming capacity ([4]; GICs derived from Id1wt/wt;Id2wt/wt;Id3-/- mice): no effect
- tumor-sphere forming capacity ([4]; GICs isolated from Id-cTKO mice): abolished
- minimal frequency of glioma cells endowed with stem cell capacity ([4]; limiting dilution, cells from freshly dissociated tumors of treated animals, control 3.84%±0.51): 0.29%±0.02
